From patent US20240238314A1, “TREATMENT OF ESSENTIAL TREMOR” (Sage Therapeutics, Inc., priority 2021, published 2024)

System: individuals with essential tremor
Test: Phase 2 placebo-controlled study, Compound 1 60 mg once daily for 28 days (reducible to 45 mg or 30 mg): TETRAS performance subscale part 4 upper limb tremor score and tremor amplitude
Type: in vivo, human
Method: 4) Upper limb tremor: Tremor is assessed during three maneuvers: forward horizontal reach posture, lateral “wing beating” posture and finger-nose-finger testing. Each upper limb is assessed and scored individually. The forward horizontal reach posture is held for 5 seconds. The lateral wing beating posture is held for 20 seconds. The finger-nose-finger movement is executed three times. Amplitude assessment should be estimated using the maximally displaced point of the hand at the point of greatest displacement along any single plane. For example, the amplitude of a pure supination-pronation tremor, pivoting around the wrist would be assessed at either the thumb or fifth digit.
For all three hand tremor ratings: 0=no tremor. 1=tremor is barely visible. 1.5=tremor is visible, but less than 1 cm. 2=tremor is 1-<3 cm amplitude. 2.5=tremor is 3-<5 cm amplitude. 3=tremor is 5-<10 cm amplitude. 3.5=tremor is 10-<20 cm amplitude. 4=tremor is >20 cm amplitude.
As used herein, “The Essential Tremor Rating Assessment Scale (TETRAS) performance subscale part 4 upper limb tremor total score” refers to the “upper limb tremor” under metric or characteristic 4 of the TETRAS performance subscale set forth above. Each of the three tasks are performed on each limb to give a total of 6 tasks, wherein each task is scored 0, 1, 1.5, 2, 2.5, 3, 3.5, or 4, and each score is added to give a total score no greater than 24.
[formula] • wherein Tf is a final tremor amplitude; • Ti is an initial tremor amplitude; • Rf is a final tremor rating; • Ri is an initial tremor rating; • α is 0.05; and • N=6, for 6 tasks in TETRAS performance subscale part 4 upper limb tremor total score.
Participants were 18 to 80 years of age, inclusive, diagnosed of ET of at least 3 years duration with scores of at least 1.5 for each of the six items that comprised the combined total upper limb TETRAS (total performance subscale part 4) with the total score for the dominant upper limb (the sum of the 3 items for either the right or left upper limb, whichever is dominant) being at least 5.5, at both Screening and predose on Day 1.
Groups received either Compound 1 as orally administered tablet(s) (each tablet providing 15 mg of Compound 1) or matching placebo at 1:1 ratio. Tablets were formulated as immediate release, white to off-white, round, film-coated tablets containing 15 mg of Compound 1, filler, disintegrant, lubricant, and glidant, wherein the tablets were formed using direct compression and coated with Opadry® II white as the film coating.
Participants were randomized to receive Compound 1 60 mg or placebo once daily in the morning on a 1:1 basis. If participants reported a TEAE considered by investigator to be related to Compound 1 and not tolerable, investigator might reduce the dose of Compound 1 from 60 mg in 15 mg decrements (i.e., 60 mg, to 45 mg, to 30 mg), as medically appropriate. If intolerable TEAEs persist at the 30 mg dose, Compound 1 was permanently stopped.
This study included a Screening Period of up to 28 days, a 29-day treatment period consisting of 28 days of dosing with the end of treatment visit intended to be on Day 29 at trough, and a 14-day follow-up period relative to final dose. Study patients were not taking other medications for essential tremor during the 28-day treatment period.
The model included the change from baseline at each visit as the dependent variable, treatment, baseline TETRAS performance subscale part 4 upper limb tremor score, assessment timepoint, and timepoint-by-treatment as explanatory variables. All explanatory variables were treated as a fixed effect. The main comparison was (difference in least mean square [LSMEAN]) between Compound 1 and placebo at the 29-day timepoint.
Model-based point estimates (i.e., LSMEAN, 95% confidence intervals, and p-values) were reported where applicable. An unstructured covariance structure was used to model the within-subject errors. […]

[1] = Full Analysis Set, Day 15, 8 hr postdose
[2] = Full Analysis Set, Day 15, predose
[3] = Per-Protocol Set, Day 15, 5 hr postdose
[4] = Per-Protocol Set, Day 15, 8 hr postdose
[5] = Per-Protocol Set, Day 15, predose

`COC[C@@]1(O)CC[C@H]2[C@@H](CC[C@@H]3[C@@H]2CC[C@]2(C)[C@@H](C(=O)Cn4nnc(C)n4)CC[C@@H]32)C1` [Compound 1] was tested, and the “LSMean difference vs placebo in change from baseline in TETRAS performance subscale part 4 upper limb tremor total score” value [1] was −0.27, the “Model-based LSMean (SE) change from baseline in TETRAS performance subscale part 4 upper limb tremor total score” value [1] was −2.36 (0.441) and the “LSMean difference vs placebo in change from baseline in TETRAS performance subscale part 4 upper limb tremor total score” value [2] was −0.48. The “Model-based LSMean (SE) change from baseline in TETRAS performance subscale part 4 upper limb tremor total score” value [2] was −1.78 (0.344), the “LSMean difference vs placebo in change from baseline in TETRAS performance subscale part 4 upper limb tremor total score” value (Full Analysis Set, Day 22) was −0.77 and the “Model-based LSMean (SE) change from baseline in TETRAS performance subscale part 4 upper limb tremor total score” value (Full Analysis Set, Day 22) was −2.10 (0.360). For the same molecule, the “Frequency of % CFB in tremor amplitude category 15-<30%, number of participants” value (Full Analysis Set, Day 29) was 5, the “Frequency of % CFB in tremor amplitude category 15-<30%, percent of participants” value (Full Analysis Set, Day 29) was “(23.8)” and the “Frequency of % CFB in tremor amplitude category 30-<50%, number of participants” value (Full Analysis Set, Day 29) was 6. For the same molecule, the “Frequency of % CFB in tremor amplitude category 30-<50%, percent of participants” value (Full Analysis Set, Day 29) was “(28.6)”, the “Frequency of % CFB in tremor amplitude category 50-<75%, number of participants” value (Full Analysis Set, Day 29) was 3 and the “Frequency of % CFB in tremor amplitude category 50-<75%, percent of participants” value (Full Analysis Set, Day 29) was “(14.3)”. The “Frequency of % CFB in tremor amplitude category <15%, number of participants” value (Full Analysis Set, Day 29) was 5, the “Frequency of % CFB in tremor amplitude category <15%, percent of participants” value (Full Analysis Set, Day 29) was “(23.8)” and the “Frequency of % CFB in tremor amplitude category >75%, number of participants” value (Full Analysis Set, Day 29) was 2. For the same molecule, the “Frequency of % CFB in tremor amplitude category >75%, percent of participants” value (Full Analysis Set, Day 29) was “(9.5)”, the “LSMean difference vs placebo in change from baseline in TETRAS performance subscale part 4 upper limb tremor total score” value (Full Analysis Set, Day 29) was −1.07 (−2.14, −0.00) and the “Mean (SD) % CFB in TETRAS performance subscale part 4 upper limb tremor total score” value (Full Analysis Set, Day 29) was −18.05%. The “Model-based LSMean (SE) change from baseline in TETRAS performance subscale part 4 upper limb tremor total score” value (Full Analysis Set, Day 29) was −2.31 (0.401), the “% CFB in Tremor Amplitude” value (Full Analysis Set, Day 29, calculated from TETRAS part 4 ratings) was −35.80% and the “LSMean difference vs placebo in change from baseline in TETRAS performance subscale part 4 upper limb tremor total score” value (Full Analysis Set, Day 29, listed as Cmpd 1) was −1.07. The “LSMean difference vs placebo in change from baseline in TETRAS performance subscale part 4 upper limb tremor total score” value (Full Analysis Set, Day 42) was 0.62, the “Model-based LSMean (SE) change from baseline in TETRAS performance subscale part 4 upper limb tremor total score” value (Full Analysis Set, Day 42) was −1.23 (0.407) and the “LSMean difference vs placebo in change from baseline in TETRAS performance subscale part 4 upper limb tremor total score” value (Per-Protocol Set, Day 8) was −0.97. The “Model-based LSMean (SE) change from baseline in TETRAS performance subscale part 4 upper limb tremor total score” value (Per-Protocol Set, Day 8) was −1.78 (0.319), the “LSMean difference vs placebo in change from baseline in TETRAS performance subscale part 4 upper limb tremor total score” value [3] was −0.71 and the “Model-based LSMean (SE) change from baseline in TETRAS performance subscale part 4 upper limb tremor total score” value [3] was −2.83 (0.500). For the same molecule, the “LSMean difference vs placebo in change from baseline in TETRAS performance subscale part 4 upper limb tremor total score” value [4] was −0.70, the “Model-based LSMean (SE) change from baseline in TETRAS performance subscale part 4 upper limb tremor total score” value [4] was −2.66 (0.500) and the “LSMean difference vs placebo in change from baseline in TETRAS performance subscale part 4 upper limb tremor total score” value [5] was −0.83. The “Model-based LSMean (SE) change from baseline in TETRAS performance subscale part 4 upper limb tremor total score” value [5] was −1.94 (0.367), the “LSMean difference vs placebo in change from baseline in TETRAS performance subscale part 4 upper limb tremor total score” value (Per-Protocol Set, Day 22) was −1.15 and the “Model-based LSMean (SE) change from baseline in TETRAS performance subscale part 4 upper limb tremor total score” value (Per-Protocol Set, Day 22) was −2.38 (0.408). For the same molecule, the “LSMean difference vs placebo in change from baseline in TETRAS performance subscale part 4 upper limb tremor total score” value (Per-Protocol Set, Day 29) was −1.37, the “Model-based LSMean (SE) change from baseline in TETRAS performance subscale part 4 upper limb tremor total score” value (Per-Protocol Set, Day 29) was −2.50 (0.452) and the “LSMean difference vs placebo in change from baseline in TETRAS performance subscale part 4 upper limb tremor total score” value (Per-Protocol Set, Day 42) was 0.36. For the same molecule, the “Model-based LSMean (SE) change from baseline in TETRAS performance subscale part 4 upper limb tremor total score” value (Per-Protocol Set, Day 42) was −1.48 (0.474) and the “Percent reduction from baseline in tremor amplitude” value (subjects with baseline TETRAS performance subscale part 4 upper limb tremor total score ≥12) was 41%.
